According to patent US20060004012A1, “Compounds, pharmaceutical compositions and methods for use in treating metabolic disorders” (priority 2004, published 2006):

The molecules below were run against T1, human GPR40 (Homo sapiens, UniProt O14842) (assay: Cell-based aequorin assay using human GPR40). Settings: activation of human GPR40; CHO cells transfected with GPR40 and aequorin expression vectors; aequorin luminescence, area-under-curve 2-20 seconds; read-out: Relative EC50.
T1 construct: expressed in transfected cells; host or cells: CHO cells, transiently transfected with Lipofectamine 2000 and co-transfected with an aequorin expression vector (Euroscreen)
Method: A cell-based aequorin assay may be employed to characterize the modulatory activity of compounds on the GPR40 signaling pathway. In an exemplary assay, CHO cells are transfected in a 15 cm plated containing 14 million cells with 5 μg of GPR40 expression vector and 5 μg of Aequorin expression vector (Euroscreen) using Lipofectamine 2000 (Invitrogen). After 17-24 hours post-transfection, cells are washed with phosphate buffered saline (PBS) and detached from the tissue culture dish with 2 mL of trypsin (0.25%(w/v)). Trypsinization is halted with 28 mL of Hanks Buffered Salt Solution containing 20 mM Hepes (H/HBSS) and 0.01% fatty acid-free bovine serum albumin (BSA) or 0.625% fatty acid-free human serum albumin (HSA). Coelantrazine is added to 1 ug/mL and the cells are incubated for 2 hours at room temperature. Cells are gently mixed every 15 minutes. Compounds are dissolved in dimethyl sulfoxide for preparation of 10 mM stock solutions. Compounds are diluted in H/HBSS containing either 0.01% BSA or 0.625% HSA. Serial dilutions of the test compounds are prepared to determine dose response.
Aequorin luminescence measurements are made using an EG&G Berthold 96-well luminometer and the response is measured over a 20 second interval after cells and compounds were mixed. The area-under-curve from 2-20 seconds is plotted to determine dose reponse. The EC50 (effective concentration to reach 50% maximal response) is determined from the dose response plot. […]

T1 sequence (O14842 whole entry): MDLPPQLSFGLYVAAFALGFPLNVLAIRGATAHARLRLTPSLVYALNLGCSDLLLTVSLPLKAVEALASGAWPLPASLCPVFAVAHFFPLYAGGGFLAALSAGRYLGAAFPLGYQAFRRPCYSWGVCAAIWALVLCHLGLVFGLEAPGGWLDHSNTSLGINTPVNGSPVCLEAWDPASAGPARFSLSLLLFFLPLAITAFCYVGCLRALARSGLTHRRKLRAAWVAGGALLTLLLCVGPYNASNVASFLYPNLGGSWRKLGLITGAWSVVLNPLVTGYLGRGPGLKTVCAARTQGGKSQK

Row | EC50 [µM] | Structure (SMILES)
1 | 0.1 to 1 | O=C(O)CC(c1ccc(F)cc1)c1ccc(OCc2cccc(-c3ccc(C(F)(F)F)cc3)c2)cc1 (centres unmarked) [Compound 46.1, 3-(4-fluorophenyl)-3-[4-(4′-trifluoromethyl-biphenyl-3-ylmethoxy)-phenyl]-propionic acid]
2 | 0.1 to 1 | O=C(O)CC(c1ccc(OCc2cccc(-c3ccc(C(F)(F)F)cc3)c2)cc1)c1nccs1 (centres unmarked) [Compound 56]
3 | 0.01 to 0.1 | O=C(O)CC(c1ccc(OCc2cccc(-c3ccc(C(F)(F)F)cc3)c2)cc1)n1cccn1 (centres unmarked) [Compound 62.3]
4 | 0.1 to 1 | CCCCOc1ccc(C)cc1-c1ccc(COc2ccc(C(CC(=O)O)c3ccnn3C)cc2)cc1 (centres unmarked) [Compound 66.5]
5 | 1 to 10 | Cc1cnc(C(CC(=O)O)c2ccc(OCc3cccc(-c4ccc(C(F)(F)F)cc4)c3)cc2)s1 (centres unmarked) [Compound 70.1]
6 | 0.1 to 1 | O=C(O)CC(c1ccc(OCc2cccc(-c3ccc(C(F)(F)F)cc3)c2)cc1)c1cccnc1 (centres unmarked) [Compound 70.2]
7 | 0.1 to 1 | Cc1ccccc1COc1ccc(C(C#CC(C)C)CC(=O)O)cc1 (centres unmarked) [Compound 71]
8 | 0.1 to 1 | Cc1ccccc1COc1ccc(C(C#CC2CC2)CC(=O)O)cc1 (centres unmarked) [Compound 72]
9 | 1 to 10 | CC#CC(CC(=O)O)c1ccc(N(C)Cc2cccc(OC)c2)cc1 (centres unmarked) [Compound 73]
10 | 1 to 10 | CC#CC(CC(=O)O)c1ccc(NC(=O)c2cccc(OC)c2)cc1 (centres unmarked) [Compound 74]
11 | > 10 | Cc1ccccc1COc1ccc(C(C#CC(F)(F)F)CC(=O)O)cc1 (centres unmarked) [Compound 75]
12 | 1 to 10 | CC#CC(CC(=O)O)c1ccc(OCc2cn(-c3ccc(Cl)cc3)nn2)cc1 (centres unmarked) [Compound 76]
13 | 0.1 to 1 | CC#CC(CC(=O)O)c1ccc(OCc2cc(-c3ccccc3)no2)cc1 (centres unmarked) [Compound 77]
14 | 1 to 10 | CC#CC(CC(=O)O)c1ccc(OCc2ccc(-c3nc4ccccc4[nH]3)cc2)cc1 (centres unmarked) [Compound 78]
15 | 1 to 10 | CC#CC(CC(=O)O)c1ccc(OCc2ccc(-n3cncn3)cc2)cc1 (centres unmarked) [Compound 79]
16 | < 0.01 | CC#C[C@@H](CC(=O)O)c1ccc(OCc2csc(-c3ccc(C(F)(F)F)cc3)n2)cc1 [Compound 80]
17 | 1 to 10 | CC#CC(CC(=O)NS(C)(=O)=O)c1ccc(OCc2ccc(OC)cc2)cc1 (centres unmarked) [Compound 81]
18 | < 0.01 | COc1cccc(CN(Cc2cccc(OC)c2)c2ccc(N(CC(=O)O)c3ccccc3)cc2)c1 [Compound 82.1]
19 | < 0.01 | COc1cccc(CNc2ccc(N(CC(=O)O)c3ccccc3)cc2)c1 [Compound 82.2]
20 | < 0.01 | O=C(O)CN(c1ccccc1)c1ccc(NCc2cccc(Oc3ccccc3)c2)cc1 [Compound 82.3]
21 | 0.01 to 0.1 | O=C(O)CN(c1ccccc1)c1ccc(NC(=O)Cc2ccccc2)cc1 [Compound 82.4]
22 | < 0.01 | O=C(O)CN(c1ccccc1)c1ccc(NC(=O)CCc2ccccc2)cc1 [Compound 82.5]

Row | EC50 [µM] | Structure (SMILES)
23 | < 0.01 | COc1cccc(/C=C/C(=O)Nc2ccc(N(CC(=O)O)c3ccccc3)cc2)c1 [Compound 82.6]
24 | 1 to 10 | CC(=O)N[C@@H](CC(=O)O)c1ccc(OCc2cccc(Oc3ccc(F)cc3)c2)cc1 [Compound 83]
25 | 0.01 to 0.1 | O=C(O)CC(c1ccccc1)c1ccc(OCc2cccc(Oc3ccccc3)c2)cc1 (centres unmarked) [Compound 84.1]
26 | 0.1 to 1 | Cc1ccccc1C(CC(=O)O)c1ccc(OCc2cccc(Oc3ccccc3)c2)cc1 (centres unmarked) [Compound 84.4]
27 | 0.1 to 1 | O=C(O)CC(c1ccc(Cl)cc1)c1ccc(OCc2cccc(Oc3ccccc3)c2)cc1 (centres unmarked) [Compound 84.5]
28 | 0.1 to 1 | O=C(O)CC(c1ccc(OCc2cccc(Oc3ccccc3)c2)cc1)c1cccc(Cl)c1 (centres unmarked) [Compound 84.6]
29 | 0.1 to 1 | COc1ccc(C(CC(=O)O)c2ccc(OCc3cccc(Oc4ccccc4)c3)cc2)cc1 (centres unmarked) [Compound 84.7]
30 | 0.1 to 1 | COc1cccc(C(CC(=O)O)c2ccc(OCc3cccc(Oc4ccccc4)c3)cc2)c1 (centres unmarked) [Compound 84.8]
31 | 1 to 10 | O=C(O)CC(c1ccc(OCc2cccc(Oc3ccccc3)c2)cc1)c1ccc(C(F)(F)F)cc1 (centres unmarked) [Compound 85.1]
32 | 0.1 to 1 | O=C(O)CC(c1ccc(OCc2cccc(Oc3ccccc3)c2)cc1)c1cccc(C(F)(F)F)c1 (centres unmarked) [Compound 85.2]
33 | < 0.01 | CC#C[C@@H](CC(=O)O)c1ccc(OCc2nc(-c3ccc(C(F)(F)F)cc3)oc2C)cc1 [Compound 86]
34 | > 10 | Cc1ccccc1COc1ccc(C(C#CC(F)(F)F)CC(=O)O)cc1 (centres unmarked) [Compound 87]
35 | > 10 | CC(C)CN(CC(C)C)[C@@H](CC(=O)O)c1ccc(OCc2cccc(Oc3ccc(F)cc3)c2)cc1 [Compound 88.1]
36 | > 10 | CCC(=O)N[C@@H](CC(=O)O)c1ccc(OCc2cccc(Oc3ccc(F)cc3)c2)cc1 [Compound 88.2]
37 | > 10 | O=C(O)C[C@H](NC(=O)c1ccccc1)c1ccc(OCc2cccc(Oc3ccc(F)cc3)c2)cc1 [Compound 88.3]
38 | > 10 | O=C(O)C[C@H](NC(=O)Cc1ccccc1)c1ccc(OCc2cccc(Oc3ccc(F)cc3)c2)cc1 [Compound 88.4]
39 | > 10 | O=C(O)C[C@H](NC(=O)/C=C/c1ccccc1)c1ccc(OCc2cccc(Oc3ccc(F)cc3)c2)cc1 [Compound 88.5]
40 | > 10 | O=C(O)C[C@H](NC(=O)CCc1ccccc1)c1ccc(OCc2cccc(Oc3ccc(F)cc3)c2)cc1 [Compound 88.6]
41 | 1 to 10 | O=C(O)CC(c1ccc(OCc2cccc(-c3ccc(C(F)(F)F)cc3)c2)cc1)c1nn[nH]n1 (centres unmarked) [Compound 88.7]
42 | 1 to 10 | O=C(O)CC1(c2ccc(OCc3cccc(-c4ccc(C(F)(F)F)cc4)c3)cc2)CC1 [Compound 89]
43 | 1 to 10 | NC(=O)C(CC(=O)O)c1ccc(OCc2cccc(-c3ccc(C(F)(F)F)cc3)c2)cc1 (centres unmarked) [Compound 90]
44 | 1 to 10 | OC(O)CC(c1ccc(OCc2cccc(-c3ccc(C(F)(F)F)cc3)c2)cc1)C1CC1 (centres unmarked) [Compound 91]
